Results as given in ChEMBL document CHEMBL1240307, “A functional genomics approach to the mode of action of apratoxin A” (Nat Chem Biol, 2006).

How the values were obtained:
Type in all cases: functional
HOP-92 = test: Cytotoxicity against human HOP92 cells by sulforhodamine B assay
HOP-62 = test: Cytotoxicity against human HOP62 cells by sulforhodamine B assay
NCI-H226 = test: Cytotoxicity against human NCI-H226 cells by sulforhodamine B assay
HT-29 [1] = test: Antitumor activity against human HT-29 cells assessed as upregulation of HSPA1A mRNA expression at 2 nM after 12 hrs relative to control
DU-145 = test: Cytotoxicity against human DU145 cells by sulforhodamine B assay
CAKI-1 = test: Cytotoxicity against human Caki1 cells by sulforhodamine B assay
HT-29 [2] = test: Antitumor activity against human HT-29 cells assessed as upregulation of MGC4504 mRNA expression at 2 nM after 6 hrs relative to control
HT-29 [3] = test: Antitumor activity against human HT-29 cells assessed as down-regulation of CCNE2 mRNA expression at 2 nM after 3 hrs relative to control
U2OS [4] = test: Cell cycle arrest in human U2OS cells overexpressing mouse Fgfr1 assessed as accumulation at S phase at 15 nM after 48 hrs by CMV-GFP reporter assay method (reference value: 33%)
NCI-H522 = test: Cytotoxicity against human NCI-H522 cells by sulforhodamine B assay
ACHN = test: Cytotoxicity against human ACHN cells by sulforhodamine B assay
HT-29 [5] = test: Antitumor activity against human HT-29 cells assessed as upregulation of DDIT4 mRNA expression at 10 nM after 6 hrs relative to control
HT-29 [6] = test: Antitumor activity against human HT-29 cells assessed as down-regulation of RAB11B mRNA expression at 10 nM after 3 hrs relative to control
U2OS [7] = test: Cell cycle arrest in human U2OS cells assessed as accumulation at S phase at 50 nM after 24 hrs by FACS analysis (reference value: 37.3%)
SR = test: Cytotoxicity against human SR cells by sulforhodamine B assay
HT-29 [8] = test: Antitumor activity against human HT-29 cells assessed as upregulation of DDIT4 mRNA expression at 2 nM after 12 hrs relative to control
HT-29 [9] = test: Antitumor activity against human HT-29 cells assessed as down-regulation of CCNE2 mRNA expression at 10 nM after 6 hrs relative to control
OVCAR-4 = test: Cytotoxicity against human OVCAR4 cells by sulforhodamine B assay
HT-29 [10] = test: Antitumor activity against human HT-29 cells assessed as down-regulation of CDC25A mRNA expression at 10 nM after 12 hrs relative to control
HT-29 [11] = test: Antitumor activity against human HT-29 cells assessed as upregulation of HSPA1A mRNA expression at 2 nM after 3 hrs relative to control
KM12 = test: Cytotoxicity against human KM12 cells by sulforhodamine B assay
HT-29 [12] = test: Antitumor activity against human HT-29 cells assessed as upregulation of RASSF4 mRNA expression at 10 nM after 3 hrs relative to control
HT-29 [13] = test: Antitumor activity against human HT-29 cells assessed as down-regulation of CDC25A mRNA expression at 2 nM after 12 hrs relative to control
HT-29 [14] = test: Antitumor activity against human HT-29 cells assessed as down-regulation of GTSE1 mRNA expression at 10 nM after 12 hrs relative to control
SNB-75 = test: Cytotoxicity against human SNB75 cells by sulforhodamine B assay
HT-29 [15] = test: Antitumor activity against human HT-29 cells assessed as upregulation of KCNK10 mRNA expression at 10 nM after 3 hrs relative to control
OVCAR-3 = test: Cytotoxicity against human OVCAR-3 cells by sulforhodamine B assay
HCT-15 = test: Cytotoxicity against human HCT15 cells by sulforhodamine B assay
HT-29 [16] = test: Antitumor activity against human HT-29 cells assessed as upregulation of DDIT4 mRNA expression at 10 nM after 12 hrs relative to control
NCI/ADR-RES = test: Cytotoxicity against human NCI/ADR-RES cells by sulforhodamine B assay
HT-29 [17] = test: Antitumor activity against human HT-29 cells assessed as down-regulation of CDC25A mRNA expression at 2 nM after 6 hrs relative to control
U2OS [18] = test: Induction of apoptosis in human U2OS cells assessed as caspase3 dependent cleavage of Ac-DEVD-pNA at 50 nM after 6-48 hrs by […] relative to control

## CC[C@H](C)[C@H]1C(=O)N2CCC[C@H]2C(=O)O[C@H](C(C)(C)C)C[C@@H](C)C[C@H](O)[C@H](C)C2=N[C@@H](/C=C(\C)C(=O)N[C@@H](Cc3ccc(OC)cc3)C(=O)N(C)[C@@H](C)C(=O)N1C)CS2 [APRATOXIN A]
HOP-92
  GI50: 3.09 nM
HOP-62
  GI50: 7.68 nM
NCI-H226
  GI50: 1.31 nM
HT-29 [1]
  fold change (FC): <=2
DU-145
  GI50: 10.3 nM
CAKI-1
  GI50: 4.05 nM
HT-29 [2]
  fold change (FC): 7.57
HT-29 [3]
  fold change (FC): <=2
U2OS [4]
  inhibition at 0.015 µM: 28%
NCI-H522
  GI50: 6.03 nM
ACHN
  GI50: 2.69 nM
HT-29 [5]
  fold change (FC): 16.18
HT-29 [6]
  fold change (FC): <=2
U2OS [7]
  inhibition at 0.05 µM: 22.6%
SR
  GI50: 1.5 nM
SR; read-out: LC50 (the source's name)
  CC50: 27.4 nM
HT-29 [8]
  fold change (FC): 3.78
HT-29 [9]
  fold change (FC): <=2
OVCAR-4
  GI50: > 100 nM
HT-29 [10]
  fold change (FC): -2.79
HT-29 [11]
  fold change (FC): <=2
KM12
  GI50: 3.52 nM
HT-29 [12]
  fold change (FC): <=2
HT-29 [13]
  fold change (FC): -2.2
HT-29 [14]
  fold change (FC): -2.35
SNB-75
  GI50: 1.96 nM
HT-29 [15]
  fold change (FC): 10.01
OVCAR-3
  GI50: 16.9 nM
HCT-15
  GI50: 4.29 nM
HT-29 [16]
  fold change (FC): 6.82
NCI/ADR-RES
  GI50: 15.3 nM
HT-29 [17]
  fold change (FC): <=2
U2OS [18]
  fold change (FC): 20
